Structures are written as SMILES.

For orientation: melting point means the temperature, or range, at which the solid turns liquid. `CC(C)(C)c1n[nH]c(SCCNC(=O)Nc2ccc(C(F)(F)F)cc2)n1` displayed a melting point of 238 to 240 °C. The molecule `O=C(c1ccccc1)c1oc2ccccc2c1-c1ccc(-c2ccc(OC(Cc3ccccc3)C(=O)O)cc2)cc1` (centres undefined) had a melting point of 159 to 161 °C. As to `COc1cccc(C(F)(F)F)c1C(=O)O`, the melting point was 129 to 130 °C. With `O=C(Nc1ccc(N2CCCC2)nc1)c1cc2cc(C(F)(F)F)cnc2n1Cc1cccc(F)c1`, the melting point lay within 234 to 236 °C. With `O=c1[nH]c2ccccc2n1C1CCN(CC(O)CSc2ccc(F)cc2)CC1` (centres undefined) the figure was 155 to 157 °C; with `CCCCC(CNc1ncc(OC)c(C)n1)c1ccccc1` (centres undefined), 39 to 40 °C; with `CCC(Oc1cccc(C)c1C)C1=NCCN1C=Nc1ccccn1` (centres undefined), 108 to 110 °C. `CC(=O)Nc1ccc(S(=O)(=O)Nc2cccnc2Nc2ccccc2)cc1` gave a melting point of 234 to 236 °C. With `CCOC(=O)/C=C/C=Cc1ccc(OCCc2nc(-c3ccccc3)oc2C)cc1` the figure was 102 to 103 °C. Molecule `CC1N=C(c2ccccc2)OC(c2ccccc2)C1OC(=O)Nc1ccccc1` (centres undefined) came in with a melting point of 150 °C.

As for `COc1ccc(OC)c2c1Cc1c([nH]cnc1=O)N2`, the melting point is > 300 °C. Regarding `N#Cc1cc(F)c(NN)cc1F`, the melting point came to 158 °C. As for `COc1ccc(/C=C/S(=O)(=O)CS(=O)(=O)/C=C/c2ccc(O)c(OC)c2)cc1N`, the melting point lay in the range of 148 to 150 °C. On to `CN(C)c1ccc(-c2[nH]nc3c2C(=O)c2c(NC(=O)CN4CCOCC4)cccc2-3)cc1`, for which the melting point was > 300 °C. Molecule `CN(C)C1CCN(c2nc3c(cc2F)c(=O)c(C(=O)O)cn3CCF)C1` (centres undefined) gave a melting point of 247 to 249 °C. `N#Cc1cc(Cl)ccc1Oc1cc(N2CCOCC2)c(F)cc1OCc1ccccc1` had a melting point of 134 to 135 °C.

`Cc1cccc(-n2c(-c3cc(-c4ccc(Cl)cc4)c(N4CCOCC4)s3)nc3ccccc3c2=O)c1` yielded a melting point of 228 to 230 °C. The molecule `COC1(c2cc(F)cc(Sc3ccc(Cc4ccc(F)cc4)cc3)c2)CCOCC1` yielded a melting point of 62 to 64 °C. To `CS(=O)(=O)N[C@@H]1CCCC[C@H]1Nc1nc(Nc2ccc3c(c2)CNCCS3)ncc1Cl` belongs 141 to 143 °C; to `Cc1nc(O)sc1-c1cn2cccnc2n1`, > 300 °C; to `OCCc1nccn1Cc1coc(-c2ccc(OCc3coc(/C=C/c4ccc(Cl)cc4F)n3)cc2)n1`, 170 to 172 °C. With `Oc1c(Cl)cc(-c2ccco2)cc1Cl` the figure was 68 to 70 °C; with `CCCC(=O)c1cc(O)c(O)c([N+](=O)[O-])c1`, 88 to 90 °C. `O=C(Nc1ccc(-n2nc(C(F)(F)F)cc2C(F)(F)F)cc1)c1cc(Cl)cnc1Cl` gave a melting point of 228 to 229 °C.

Turning to `OCCNCCCCCCNCCO`, the melting point was in the range of 75 to 79 °C. On to `Cc1cc(Cl)ccc1N=CN(C)SN(Cc1ccccc1)Cc1ccccc1`, for which the melting point was 97 to 99 °C. `CC(=O)Nc1cc(N)c(Cl)cc1F` registered a melting point of 142 to 143 °C. As to `CCOc1cc(C)ccc1C1CCN(CCCCNC(=O)c2ccc(-c3ccc(C(F)(F)F)cc3)cc2)CC1`, the melting point turned out to be 191 °C. To `Cn1cc(C(=O)Nc2cnccc2-c2ccc(Cl)cc2)c(C(F)(F)F)c1` belongs 178 to 180 °C; to `COc1nc2cc([N+](=O)[O-])c(C)c(C(=O)N3CCCNCC3)c2nc1OC`, 141 to 143 °C.

The molecule `O=c1oc(-c2cccc(OC(F)(F)F)c2)cc(O)c1SCc1ccccc1` came in with a melting point of 128 to 132 °C.

On to `Cc1nn(C)c2c(Cl)nc(C(C)C)nc12`, for which the melting point fell in the range of 87 to 89 °C. In turn, `COc1cc(C(=O)c2ccc(C(F)(F)F)cc2)ccc1O` registered a melting point of 97 °C. To `Cc1nnc2c(-c3ccccc3)nccn12` belongs 178 to 180 °C; to `Cc1cc(C)c(N2CCCc3c2nn(C)c3C(=O)O)c(Cl)c1`, 248 °C.

With `COc1cc(OC)c2c(=O)[nH]c(-c3cc(C)c(OCCN4CC(NC(C)=O)C4)c(C)c3)nc2c1`, the melting point lay in the range of 112 to 114 °C. The molecule `O=C(O)Cc1cccc2c(C3CCCC3)nccc12` yielded a melting point of 172 °C. On to `O=C(O)[C@H](Cc1ccc(C(F)(F)F)c(F)c1)[C@@H](O)c1ccc(F)cc1` (racemic), for which the melting point lay within 74 to 75 °C. To `CNC1CCN(c2nncc3cc(OC)c(OC)cc23)CC1` belongs 194 to 196 °C. In turn, `CC(=O)Nc1ccn2nc(-c3ccccc3)c(-c3ccc(=O)n(C(C)C)n3)c2c1` showed a melting point of 221 to 222 °C. Turning to `C=Cc1cc(CNC(=O)NCc2ccc(C(C)(C)C)cc2)cc(Cl)c1NS(C)(=O)=O`, the melting point lay in the range of 165 to 167 °C. The molecule `COc1ccc2c(C(C)C(=O)O)cnc(Cl)c2c1` (centres undefined) came in with a melting point of 167 to 168 °C. With `N#Cc1cc(C(=O)O)ccc1Cl` the figure was 180 °C; with `O=C1c2ccccc2C(OCCCl)N1c1ccccc1` (centres undefined), 71 °C. Molecule `COC(=O)CCC(=O)Nc1cc(Cl)ccc1C(=O)OC` displayed a melting point of 80 to 84 °C. To `CC(=O)OCC1Cc2c(C3=C(c4cn(C)c5ccccc45)C(=O)OC3=O)c3ccccc3n2C1` (centres undefined) belongs 208 to 211 °C; to `O=C(O)CN1CCOCC1`, 169 to 170 °C.

As for `Cc1nc(-n2ccc(OCc3ccc(F)cc3)cc2=O)sc1C(=O)NCc1ccc(F)cc1`, the melting point is 249 to 251 °C. Take `O=C(c1ccccc1F)c1cc(Cl)ccc1I`: the melting point is 78 to 81 °C. `CN(C(=O)C1CCCCC1)c1ccccc1C(c1ccc(O)cc1)c1ccc(O)cc1`: the melting point was 250 to 252 °C. For `CC(C)(C)OC(=O)NCc1cc(C(C)(C)C)cc(I)c1O`, the melting point lay in the range of 196 to 197 °C. Take `Cc1nc2c(N)nc3ccccc3c2n1CCOCCNS(C)(=O)=O`: the melting point was 152 to 155 °C. Take `O=C(Cc1cccc(C(F)(F)F)c1)NCc1cccc2c1C(=O)N(C1CCC(=O)NC1=O)C2=O` (centres undefined): the melting point lay within 156 to 158 °C. With `COc1ccc(-c2cc(Cl)c3ccccc3n2)cc1C`, the melting point lay within 90 to 92 °C. Molecule `COC(=O)Cn1ccnc1Cc1ccccc1` gave a melting point of 70.8 °C.

Molecule `COc1nsc(NC(=O)[C@H](C)NC(=O)[C@H](Cc2ccccc2)NC(=O)OCc2ccccc2)n1` displayed a melting point of 161 to 162 °C. `CN(SC(C)(C)C(=O)c1ccccc1)C(=O)ON=C1SC(C)(C)C(=O)N1C`: the melting point lay in the range of 98 to 100 °C. `CON(C(=O)c1cn(C)nc1C(F)F)C(C)C1CCC(C)=CC1(C)C` (centres undefined) gave a melting point of 95 to 105 °C. `Cn1c(=O)cc(CCO)c2ccccc21` registered a melting point of 149 to 150 °C. With `O=C(O)[C@H]1C[C@@H](C(=O)O)c2c(Cl)cc(Cl)cc2N1` (relative stereo), the melting point is 225 to 227 °C. For the molecule `CSc1nccc(-c2cc(C)ccc2N)n1`, the melting point is 120 to 123 °C. Molecule `CCOC(=O)c1cc(=O)c2ccccc2[nH]1` registered a melting point of 210 to 212 °C. Molecule `COc1ccc(C(=O)Cc2ccc(Br)cc2)cc1` gave a melting point of 142 °C. On to `CCCCOCCOc1ccc(-c2ccc(N3CCCC3)c(C(C)=O)c2)cc1`, for which the melting point lay in the range of 87 to 88 °C. Molecule `O=C1NCC(Cc2ccc(Oc3ccccc3)cc2)O1` (centres undefined) had a melting point of 118 to 119 °C.

Molecule `CCCn1c(=O)c2c(nc(/C=C/c3cccs3)n2C)n(CCC)c1=O` registered a melting point of 185 to 186 °C. Turning to `CCOC(=O)c1nc(S)n2c1c(=O)n(C)c1cc(C(F)(F)F)ccc12`, the melting point worked out at 282 °C. With `O=C(Nc1ccc(-n2nc(C(F)(F)F)cc2C2CC2)c(F)c1)C1(c2ccccc2)CCC1` the figure was 72 to 76 °C; with `Cc1ccccc1C1(c2ccc(OC(F)F)cc2)N=C(N)N(C)C1=O` (centres undefined), 85 to 90 °C; with `CCCCc1nc(N)c(C#N)[nH]1`, 115 to 116 °C. `N#Cc1ccc2oc3c(c2c1)CCC(C(=O)O)C3` (centres undefined) returned a melting point of 185 to 190 °C.

As to `CC(c1ccc2c(c1)Cc1ccccc1-2)n1ccnn1` (centres undefined), the melting point fell in the range of 160 to 162 °C.

On to `Cc1ccc(C(=O)NCc2ccc(Br)cc2F)c(OCC(=O)O)c1`, for which the melting point lay in the range of 188 to 189 °C.

For the molecule `O=C(CCCCCCOc1ccc(O)cc1)C(F)(F)F`, the melting point was in the range of 61 to 62 °C. The molecule `CCCCNC(=O)[C@@H](C[C@H](O)[C@@H](N)CC1CCCCC1)C(C)C` returned a melting point of 88.5 to 90 °C. Take `CCc1cc2c(-c3ccccc3Cl)nc(=O)n(C)c2s1`: the melting point came out at 99 °C.

Molecule `CCN(CC)C(=O)NC1CC2c3cccc4[nH]c(C#Cc5ccc(C#N)cc5)c(c34)CC2N(C)C1` (centres undefined) came in with a melting point of 150 to 151 °C. With `Cc1ccc(C(=O)NC(NC(=NC#N)Nc2cccnc2)C(Cl)(Cl)Cl)cc1` (centres undefined) the figure was 165 to 166 °C; with `CCc1nnc(N2CCN(c3ccc(N4CC(CNC(C)=O)OC4=O)cc3F)CC2)s1` (centres undefined), 237 to 238 °C. On to `CC(=O)N[C@@H](C)COC1CCN(c2nc3ccc(OCC4CC4)cc3s2)CC1`, for which the melting point was 121 to 122 °C. To `CNC(=O)c1cccc(F)c1Nc1nc(Nc2ccc3c(c2)C(C)(C)CCC(=O)N3)ncc1Cl` belongs 153 °C; to `COc1ccc(C2=NN(Cc3ccccc3O)C(=O)[C@H]3CCCC[C@@H]23)cc1OC` (relative stereo), 132 to 133 °C.

`O=C(Nc1ccc(F)cc1F)Nc1cnc2cc3c(cc2c1-c1ccccc1Cl)CCC3` gave a melting point of 247 to 248 °C. As for `CCN1c2ncccc2C(NC)=Nc2c(C)cc(C)nc21`, the melting point lay in the range of 128 to 130 °C. The molecule `COC(=O)C1(C(N)=O)CC1` showed a melting point of 157 °C.

Molecule `CN1/C(=C\C(=S)NC(=O)c2ccccc2)C(C)(C)c2ccccc21` showed a melting point of 108 to 110 °C. As to `COc1cccc(CNC(=O)c2nc3scc(CNC(=O)c4ccc(C(=O)O)cc4)c3c(=O)[nH]2)c1`, the melting point is 285 to 286 °C. Consider `CC(Sc1ccc(NC(=O)NC(=O)c2ccccc2Cl)cc1)c1ccccc1` (centres undefined), for which the melting point was found to be 226 °C. In turn, `COCC1CN(c2ccc(C3CCCCC3)c(N)c2)C(=O)O1` (racemic) displayed a melting point of 130 to 132 °C.

These data come from a melting point compilation (Tetko et al.; mined from patent text by program, amines drawn as free bases though some values may be those of a salt).
